From patent US11203601B2, “Tricyclic compounds as glycogen synthase kinase 3 (GSK3) inhibitors and uses thereof” (The Broad Institute, Inc., priority 2017, dated 2021)

Experiments:
Assay in all cases: Carna kinome panel
Type in all cases: biochemical
Details in all cases: read-out: % Inhibition at 10 μM of the test compound
[1] = target: CDK5/p25 (Homo sapiens (Human), UniProt Q00535)
[2] = target: EPHA7 (Homo sapiens (Human), UniProt Q15375)
[3] = target: EGFR(L858R) (Homo sapiens (Human), UniProt P00533, L858R)
[4] = target: YES(T348I) (Homo sapiens (Human), UniProt P07947, T348I)
[5] = target: KIT (Homo sapiens (Human), UniProt P10721)
[6] = target: JAK3 (Homo sapiens (Human), UniProt P52333)
[7] = target: AXL (Homo sapiens (Human), UniProt P30530)
[8] = target: MAP2K2_Cascade (Homo sapiens (Human), UniProt P36507)
[9] = target: FLT1 (Homo sapiens (Human), UniProt P17948)
[10] = target: BRAF_Cascade (Homo sapiens (Human), UniProt P15056)
[11] = target: CDK6/CycD3 (Homo sapiens (Human), UniProt Q00534)
[12] = target: MAP3K5_Cascade (Homo sapiens (Human), UniProt Q99683)
[13] = target: MST2 (Homo sapiens (Human), UniProt Q13188)
[14] = target: INSR (Homo sapiens (Human), UniProt P06213)
[15] = target: DYRK2 (Homo sapiens (Human), UniProt Q92630)
[16] = target: CHK2 (Homo sapiens (Human), UniProt O96017)
[17] = target: ALK(F1174L) (Homo sapiens (Human), UniProt Q9UM73, F1174L)
[18] = target: EEF2K (Homo sapiens (Human), UniProt O00418)
[19] = target: CRIK (Homo sapiens (Human), UniProt O14578)
[20] = target: p38α (Homo sapiens (Human), UniProt Q16539)
[21] = target: NEK2 (Homo sapiens (Human), UniProt P51955)
[22] = target: PBK (Homo sapiens (Human), UniProt Q96KB5)
[23] = target: TRKC (Homo sapiens (Human), UniProt Q16288)
[24] = target: NEK9 (Homo sapiens (Human), UniProt Q8TD19)
[25] = target: AurB (Homo sapiens (Human), UniProt Q96GD4)
[26] = target: SLK (Homo sapiens (Human), UniProt Q9H2G2)
[27] = target: ARG (Homo sapiens (Human), UniProt P42684)
[28] = target: CAMK1α (Homo sapiens (Human), UniProt Q14012)
[29] = target: ABL (Homo sapiens (Human), UniProt P00519)
[30] = target: KIT(V654A) (Homo sapiens (Human), UniProt P10721, V654A)
[31] = target: LOK (Homo sapiens (Human), UniProt O94804)
[32] = target: JAK1 (Homo sapiens (Human), UniProt P23458)
[33] = target: PKCβ1 (Homo sapiens (Human), UniProt P05771)
[34] = target: FER (Homo sapiens (Human), UniProt P16591)
[35] = target: MAPKAPK 5 (Homo sapiens (Human), UniProt Q8IW41)
[36] = target: CDC7/ASK (Homo sapiens (Human), UniProt O00311)
[37] = target: PKCθ (Homo sapiens (Human), UniProt Q04759)
[38] = target: MET(Y1235D) (Homo sapiens (Human), UniProt P08581, Y1235D)
[39] = target: HIPK4 (Homo sapiens (Human), UniProt Q8NE63)
[40] = target: SRM (Homo sapiens (Human), UniProt Q9H3Y6)

Sequence of BRAF_Cascade (P15056 whole entry): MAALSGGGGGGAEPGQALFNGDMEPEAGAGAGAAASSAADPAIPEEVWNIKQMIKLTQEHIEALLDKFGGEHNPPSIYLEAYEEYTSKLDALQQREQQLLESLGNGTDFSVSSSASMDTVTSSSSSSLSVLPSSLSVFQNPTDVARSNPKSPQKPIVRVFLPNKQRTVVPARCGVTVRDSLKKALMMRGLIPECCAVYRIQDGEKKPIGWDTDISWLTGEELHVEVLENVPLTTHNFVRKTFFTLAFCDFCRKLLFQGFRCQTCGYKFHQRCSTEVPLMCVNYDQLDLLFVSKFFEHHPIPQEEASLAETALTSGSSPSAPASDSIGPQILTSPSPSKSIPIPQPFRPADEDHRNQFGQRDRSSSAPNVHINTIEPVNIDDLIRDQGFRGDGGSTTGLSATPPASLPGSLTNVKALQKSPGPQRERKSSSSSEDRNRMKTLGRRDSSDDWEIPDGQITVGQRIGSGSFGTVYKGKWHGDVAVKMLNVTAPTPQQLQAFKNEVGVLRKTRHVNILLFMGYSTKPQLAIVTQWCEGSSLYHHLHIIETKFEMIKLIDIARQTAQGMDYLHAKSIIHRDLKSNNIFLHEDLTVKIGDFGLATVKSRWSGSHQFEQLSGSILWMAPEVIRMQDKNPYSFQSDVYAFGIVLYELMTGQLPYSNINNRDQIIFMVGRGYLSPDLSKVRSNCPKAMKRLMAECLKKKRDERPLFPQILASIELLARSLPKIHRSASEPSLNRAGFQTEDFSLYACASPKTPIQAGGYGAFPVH
Sequence of DYRK2 (Q92630 whole entry): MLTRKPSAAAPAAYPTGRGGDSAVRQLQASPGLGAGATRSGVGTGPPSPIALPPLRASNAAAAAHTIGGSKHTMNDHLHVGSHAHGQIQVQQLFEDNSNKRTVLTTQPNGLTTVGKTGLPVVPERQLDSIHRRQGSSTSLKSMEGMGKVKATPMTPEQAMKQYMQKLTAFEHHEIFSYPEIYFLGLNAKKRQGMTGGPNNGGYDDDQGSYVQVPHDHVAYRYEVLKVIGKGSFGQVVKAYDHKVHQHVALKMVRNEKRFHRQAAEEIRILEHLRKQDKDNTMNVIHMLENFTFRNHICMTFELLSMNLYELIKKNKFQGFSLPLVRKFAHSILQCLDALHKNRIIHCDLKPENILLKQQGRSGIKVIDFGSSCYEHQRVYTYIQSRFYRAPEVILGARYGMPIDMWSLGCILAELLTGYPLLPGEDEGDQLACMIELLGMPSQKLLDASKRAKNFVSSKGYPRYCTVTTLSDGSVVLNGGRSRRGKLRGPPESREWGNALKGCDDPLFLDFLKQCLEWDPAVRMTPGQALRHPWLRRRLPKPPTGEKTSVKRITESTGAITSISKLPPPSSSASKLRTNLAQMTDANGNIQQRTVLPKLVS
Sequence of HIPK4 (Q8NE63 whole entry): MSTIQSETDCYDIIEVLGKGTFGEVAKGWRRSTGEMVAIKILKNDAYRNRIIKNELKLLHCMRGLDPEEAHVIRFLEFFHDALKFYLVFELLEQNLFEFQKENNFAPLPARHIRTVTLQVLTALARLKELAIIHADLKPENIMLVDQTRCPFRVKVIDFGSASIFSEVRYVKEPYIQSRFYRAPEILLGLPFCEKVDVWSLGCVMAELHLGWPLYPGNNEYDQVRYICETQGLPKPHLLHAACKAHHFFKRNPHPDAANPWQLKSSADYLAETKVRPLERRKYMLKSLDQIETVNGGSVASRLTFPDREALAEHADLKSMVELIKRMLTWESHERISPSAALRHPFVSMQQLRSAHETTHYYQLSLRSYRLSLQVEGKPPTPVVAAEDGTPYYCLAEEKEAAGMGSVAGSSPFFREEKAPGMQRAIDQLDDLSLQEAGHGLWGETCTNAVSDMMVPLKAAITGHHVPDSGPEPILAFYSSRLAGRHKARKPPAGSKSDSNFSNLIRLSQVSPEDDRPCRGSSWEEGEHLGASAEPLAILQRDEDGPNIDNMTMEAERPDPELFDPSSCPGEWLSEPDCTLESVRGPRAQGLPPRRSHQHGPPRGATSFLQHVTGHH
Sequence of LOK (O94804 whole entry): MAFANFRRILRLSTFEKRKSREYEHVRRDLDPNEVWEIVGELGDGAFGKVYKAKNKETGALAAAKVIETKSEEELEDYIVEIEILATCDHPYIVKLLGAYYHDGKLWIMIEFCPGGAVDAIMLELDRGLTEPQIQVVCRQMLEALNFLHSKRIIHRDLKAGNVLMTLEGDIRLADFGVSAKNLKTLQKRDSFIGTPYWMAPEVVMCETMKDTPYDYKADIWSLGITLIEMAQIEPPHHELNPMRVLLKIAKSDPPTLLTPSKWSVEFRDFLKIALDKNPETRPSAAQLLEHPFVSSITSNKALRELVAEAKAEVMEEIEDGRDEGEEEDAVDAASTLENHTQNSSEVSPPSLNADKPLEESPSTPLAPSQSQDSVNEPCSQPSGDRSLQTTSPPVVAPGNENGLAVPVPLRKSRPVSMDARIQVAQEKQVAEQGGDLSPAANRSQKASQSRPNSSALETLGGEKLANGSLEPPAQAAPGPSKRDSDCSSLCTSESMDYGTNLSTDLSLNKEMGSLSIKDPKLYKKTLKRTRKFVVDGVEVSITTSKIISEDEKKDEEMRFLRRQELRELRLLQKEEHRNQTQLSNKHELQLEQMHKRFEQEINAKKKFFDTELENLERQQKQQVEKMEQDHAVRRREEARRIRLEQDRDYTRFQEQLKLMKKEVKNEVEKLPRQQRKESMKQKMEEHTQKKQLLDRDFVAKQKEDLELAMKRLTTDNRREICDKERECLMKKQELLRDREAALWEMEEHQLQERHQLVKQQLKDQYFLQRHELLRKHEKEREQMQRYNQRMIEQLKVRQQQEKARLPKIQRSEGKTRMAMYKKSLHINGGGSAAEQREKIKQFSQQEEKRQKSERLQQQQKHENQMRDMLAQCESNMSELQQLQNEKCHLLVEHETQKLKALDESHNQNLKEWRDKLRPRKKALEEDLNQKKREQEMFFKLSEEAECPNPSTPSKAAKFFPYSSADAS
Sequence of MAP2K2_Cascade (P36507 whole entry): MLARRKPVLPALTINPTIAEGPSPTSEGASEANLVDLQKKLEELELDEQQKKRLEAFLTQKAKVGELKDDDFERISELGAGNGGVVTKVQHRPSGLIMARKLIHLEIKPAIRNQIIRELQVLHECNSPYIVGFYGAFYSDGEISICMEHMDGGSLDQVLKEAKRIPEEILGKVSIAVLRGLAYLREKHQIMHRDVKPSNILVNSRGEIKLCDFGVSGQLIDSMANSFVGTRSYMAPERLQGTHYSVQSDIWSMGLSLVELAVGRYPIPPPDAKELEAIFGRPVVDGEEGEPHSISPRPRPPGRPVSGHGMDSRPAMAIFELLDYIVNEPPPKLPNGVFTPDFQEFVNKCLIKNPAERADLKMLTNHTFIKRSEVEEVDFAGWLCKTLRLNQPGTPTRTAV
Sequence of EEF2K (O00418 whole entry, species assumed): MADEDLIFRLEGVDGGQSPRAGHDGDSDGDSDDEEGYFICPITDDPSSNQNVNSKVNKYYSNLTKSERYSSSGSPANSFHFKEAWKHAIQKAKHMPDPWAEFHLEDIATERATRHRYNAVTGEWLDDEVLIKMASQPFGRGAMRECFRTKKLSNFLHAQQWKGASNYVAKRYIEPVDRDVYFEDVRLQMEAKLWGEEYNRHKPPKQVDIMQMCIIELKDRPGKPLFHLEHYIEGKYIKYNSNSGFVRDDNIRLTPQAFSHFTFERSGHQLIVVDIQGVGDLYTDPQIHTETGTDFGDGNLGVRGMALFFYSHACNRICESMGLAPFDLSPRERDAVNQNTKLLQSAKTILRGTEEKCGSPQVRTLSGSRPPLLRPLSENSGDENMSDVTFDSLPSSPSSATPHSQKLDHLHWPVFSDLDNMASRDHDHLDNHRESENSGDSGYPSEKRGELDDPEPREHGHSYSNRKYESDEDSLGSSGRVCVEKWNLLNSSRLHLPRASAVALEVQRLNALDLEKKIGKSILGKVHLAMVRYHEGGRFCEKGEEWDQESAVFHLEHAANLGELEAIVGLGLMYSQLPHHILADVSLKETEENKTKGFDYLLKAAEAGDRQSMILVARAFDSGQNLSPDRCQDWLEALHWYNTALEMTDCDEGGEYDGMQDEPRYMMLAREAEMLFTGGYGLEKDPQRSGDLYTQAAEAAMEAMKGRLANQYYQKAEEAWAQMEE
Sequence of PKCθ (Q04759 whole entry): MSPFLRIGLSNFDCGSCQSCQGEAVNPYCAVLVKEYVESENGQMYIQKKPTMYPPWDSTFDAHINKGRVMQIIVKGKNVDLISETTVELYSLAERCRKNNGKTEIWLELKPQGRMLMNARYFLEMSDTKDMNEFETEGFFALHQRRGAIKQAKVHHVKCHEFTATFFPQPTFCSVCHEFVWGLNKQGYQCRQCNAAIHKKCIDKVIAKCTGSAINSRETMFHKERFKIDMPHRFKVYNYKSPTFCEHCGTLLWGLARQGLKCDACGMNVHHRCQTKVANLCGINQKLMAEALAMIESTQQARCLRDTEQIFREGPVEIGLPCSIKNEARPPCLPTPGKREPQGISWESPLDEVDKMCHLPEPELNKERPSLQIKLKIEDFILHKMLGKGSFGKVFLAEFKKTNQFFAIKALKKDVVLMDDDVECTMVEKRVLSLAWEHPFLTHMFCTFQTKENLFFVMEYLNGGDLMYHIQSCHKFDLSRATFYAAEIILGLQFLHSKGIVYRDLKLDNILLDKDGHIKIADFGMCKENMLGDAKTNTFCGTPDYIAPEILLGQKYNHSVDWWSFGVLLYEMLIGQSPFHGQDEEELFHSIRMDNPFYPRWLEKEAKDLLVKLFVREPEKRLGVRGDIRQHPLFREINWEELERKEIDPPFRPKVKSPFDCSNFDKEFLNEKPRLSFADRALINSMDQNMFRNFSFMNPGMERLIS

`CCC1(c2ccccc2)C2=C(CC(C)(C)CC2=O)Nc2ncsc21` (stereo not shown) [Compound 1, 9-Ethyl-6,6-dimethyl-9-phenyl-5,6,7,9-tetrahydrothiazolo[4,5-b]quinolin-8(4H)-one] was tested. Which inhibition at 10 µM [1] did it give?
The inhibition at 10 µM was 41.2%.

And the inhibition at 10 µM [2]?
The inhibition at 10 µM was 33.9%.

And the inhibition at 10 µM [3]?
The inhibition at 10 µM was 22.2%.

And the inhibition at 10 µM [4]?
The inhibition at 10 µM was 13.5%.

What about the inhibition at 10 µM [5] of the same compound?
The inhibition at 10 µM was 7.1%.

What about the inhibition at 10 µM [6] of the same compound?
Its inhibition at 10 µM is 6.9%.

What about the inhibition at 10 µM [7] of the same compound?
The inhibition at 10 µM was 6.5%.

And the inhibition at 10 µM [8]?
The inhibition at 10 µM was 6.4%.

What about the inhibition at 10 µM [9] of the same compound?
The inhibition at 10 µM was 6.2%.

And the inhibition at 10 µM [10]?
Its inhibition at 10 µM is 6.2%.

What about the inhibition at 10 µM [11] of the same compound?
Its inhibition at 10 µM is 5.5%.

What about the inhibition at 10 µM [12] of the same compound?
Its inhibition at 10 µM is 5.4%.

And the inhibition at 10 µM [13]?
Its inhibition at 10 µM is 4.2%.

And the inhibition at 10 µM [14]?
The inhibition at 10 µM was 4.1%.

What about the inhibition at 10 µM [15] of the same compound?
The inhibition at 10 µM was 4%.

What about the inhibition at 10 µM [16] of the same compound?
The inhibition at 10 µM was 3.3%.

And the inhibition at 10 µM [17]?
The inhibition at 10 µM was 1.8%.

And the inhibition at 10 µM [18]?
Its inhibition at 10 µM is 1.6%.

What about the inhibition at 10 µM [19] of the same compound?
Its inhibition at 10 µM is 1.6%.

And the inhibition at 10 µM [20]?
Its inhibition at 10 µM is 1.1%.

And the inhibition at 10 µM [21]?
The inhibition at 10 µM was 0.9%.

And the inhibition at 10 µM [22]?
The inhibition at 10 µM was 0.8%.

And the inhibition at 10 µM [23]?
Its inhibition at 10 µM is 0.4%.

What about the inhibition at 10 µM [24] of the same compound?
The inhibition at 10 µM was 0.3%.

And the inhibition at 10 µM [25]?
The inhibition at 10 µM was -0.4%.

And the inhibition at 10 µM [26]?
The inhibition at 10 µM was -0.6%.

And the inhibition at 10 µM [27]?
The inhibition at 10 µM was -0.6%.

What about the inhibition at 10 µM [28] of the same compound?
Its inhibition at 10 µM is -2.6%.

And the inhibition at 10 µM [29]?
Its inhibition at 10 µM is -2.7%.

What about the inhibition at 10 µM [30] of the same compound?
Its inhibition at 10 µM is -3.5%.

And the inhibition at 10 µM [31]?
Its inhibition at 10 µM is -4.7%.

And the inhibition at 10 µM [32]?
Its inhibition at 10 µM is -6.4%.

And the inhibition at 10 µM [33]?
Its inhibition at 10 µM is -7.4%.

What about the inhibition at 10 µM [34] of the same compound?
Its inhibition at 10 µM is -7.5%.

What about the inhibition at 10 µM [35] of the same compound?
The inhibition at 10 µM was -8.5%.

What about the inhibition at 10 µM [36] of the same compound?
The inhibition at 10 µM was -9.1%.

What about the inhibition at 10 µM [37] of the same compound?
Its inhibition at 10 µM is -11.2%.

What about the inhibition at 10 µM [38] of the same compound?
The inhibition at 10 µM was -12.2%.

And the inhibition at 10 µM [39]?
The inhibition at 10 µM was -12.5%.

And the inhibition at 10 µM [40]?
Its inhibition at 10 µM is -15.1%.
